Experimental data as given in US8198456B2, “Dihydropyridine derivatives as useful as protein kinase inhibitors” (Bayer Intellectual Property GmbH, priority 2006, dated 2012).

How the values were obtained:
[1] = target: T1, recombinant human c-MET kinase enzyme domain (Homo sapiens, UniProt P08581); assay: c-MET receptor tyrosine kinase Homogeneous Time Resolved Fluorescence assay (HTRF); format: biochemical; conditions: Biological Example 1 and/or Biological Example 2
T1 construct: Recombinant c-Met kinase domain (amino acids 960-1390); His (N); made in house; host or cells: baculovirus expression system (insect cells; SF21 is named only for the alternative format)
T1 sequence (P08581 960-1390): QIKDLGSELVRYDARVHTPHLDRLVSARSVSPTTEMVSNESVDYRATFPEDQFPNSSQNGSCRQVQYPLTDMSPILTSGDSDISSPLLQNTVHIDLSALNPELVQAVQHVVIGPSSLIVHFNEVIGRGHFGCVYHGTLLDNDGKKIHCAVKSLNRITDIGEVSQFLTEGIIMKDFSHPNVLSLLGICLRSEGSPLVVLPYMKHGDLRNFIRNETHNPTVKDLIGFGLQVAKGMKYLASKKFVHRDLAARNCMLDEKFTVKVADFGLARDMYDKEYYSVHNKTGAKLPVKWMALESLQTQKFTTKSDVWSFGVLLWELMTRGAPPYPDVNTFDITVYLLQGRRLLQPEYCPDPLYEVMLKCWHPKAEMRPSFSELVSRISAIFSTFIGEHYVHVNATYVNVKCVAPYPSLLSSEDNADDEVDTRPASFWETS
Outline: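 His-tagged c-Met kinase domain (aa 960-1390, baculovirus) phosphorylated biotinylated poly-Glu-Tyr (37 nM) with 20 μM ATP in HEPES pH 7.4, Mg/Mn, DTT, 1% DMSO, 20 min at ambient temperature, EDTA-stopped. HTRF read (PT66-Eu/streptavidin-XL665, 665/620 nm ratio) after 4 h; IC50 from eight 1:3.16 dilutions.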

SMILES | melting point | IC50 [1]
CCNc1n[nH]c2ccc(C3C(C#N)=C(C)NC(C)=C3C#N)cc12 [compound 121, 4-[3-(ethylamino)-1H-indazol-5-yl]-1,4-dihydro-2,6-dimethyl-3,5-pyridinedicarbonitrile] | 247.6 °C | < 100 nM
CC1=C(C#N)C(c2ccc3[nH]nc(NCCN4CCOCC4)c3c2)C(C#N)=C(C)N1 [compound 307, 1,4-dihydro-2,6-dimethyl-4-[3-[[2-(4-morpholinyl)ethyl]amino]-1H-indazol-5-yl]-3,5-pyridinedicarbonitrile] | – | < 100 nM
CC1=C(C#N)C(c2ccc3[nH]nc(NCCN)c3c2)C(C#N)=C(C)N1 [compound 308, 4-[3-[(2-aminoethyl)amino]-1H-indazol-5-yl]-1,4-dihydro-2,6-dimethyl-3,5-pyridinedicarbonitrile] | – | < 100 nM
CC1=C(C#N)C(c2ccc3[nH]nc(NCCN4CCCC4)c3c2)C(C#N)=C(C)N1 [compound 309, 1,4-dihydro-2,6-dimethyl-4-[3-[[2-(1-pyrrolidinyl)ethyl]amino]-1H-indazol-5-yl]-3,5-pyridinedicarbonitrile] | – | < 100 nM
